Consider one molecule from patent US12233041B2, “Disulfonate stilbenes for use in the treatment of proliferative diseases” (UNIVERSITÉ DE NANTES, priority 2018, dated 2025).

The test system of one assay is DU-145 cell line. Description: Clonogenicity test, sensitizing effect with an antineoplastic drug. Format: cell-based. The note with it: Homo sapiens, DU-145, B-2 20 μM. As for the experimental part:
Clonogenicity tests are carried out against several model cell lines derived from cancer including prostate cancer (DU-145). Cells are exposed to an anti-cancer agent targeting DNA (cisplatin or camptothecin). Damaged cells are counted and seeded in the presence or in the absence of B-2 in triplicate culture plates. After about two weeks of incubation at 37° C. the number of clones formed is counted. Each cell capable of repairing its lesions will then form a clone. After counting, the percentage of survival will be calculated relative to the control condition for which it is considered that there is 100% survival.
The main interest of RAD51 protein inhibitors is the sensitization of chemo-resistant or radio-resistant cancerous cell lines. Clonogenicity evaluation was carried out on the DU-145 cell line treated with cisplatin treatment in the presence or in the absence of disulfonate stilbene B-2 (RAD51 protein inhibitor).
DU-145 cell line was treated with camptothecin in the presence or in the absence of disulfonate stilbene B-2 (RAD51 protein inhibitor) and the clonogenic cell survival was determined.

For assay [1], the system named is recombinant fibroblast line RG37. Put plainly: Intracellular homologous recombination (HR), GFP reconstitution after I-SceI cleavage, flow cytometry. The conditions noted are these: RG37 cells, 72 h after pCMV-HA-I-SceI transfection; FIG. 3. Format: cell-based. As for the experimental part:
After transfection with the pCMV-HA-I-SceI plasmid and incubation for 72 h, the cells were collected in PBS and 50 mM EDTA, pelleted and fixed with 2% paraformaledhyde for 20 min. The percentage of GFP-expressing cells was scored by FACS analysis using Cytoflex (Beckman Coulter). At least 3 independent experiments were performed, and HA-I-SceI expression was verified each time by Western blot with rabbit anti-HA antibody (Abcam).
The recombinant fibroblast line RG37 is used to confirm in vitro results (Examples 2-5) in the cellular context. This cellar line comprises two non-functional GFP cassettes, one of which has a unique cleavage site inducible by transfection of a restriction enzyme. After cleavage, which is equivalent to a double-strand break (DSB) of the DNA, the homologous recombination (HR) leads to the reconstitution of a complete GFP cassette thus making the cell fluorescent. The rate of intracellular HR is then determined by measurement in flow cytometry so as to measure the level of HR in cells after treatment with compounds C-3, B-2 and X-2.

The target in the next assay is T1, Rad51 (Homo sapiens, UniProt Q06609).
T1 sequence (Q06609 1-339): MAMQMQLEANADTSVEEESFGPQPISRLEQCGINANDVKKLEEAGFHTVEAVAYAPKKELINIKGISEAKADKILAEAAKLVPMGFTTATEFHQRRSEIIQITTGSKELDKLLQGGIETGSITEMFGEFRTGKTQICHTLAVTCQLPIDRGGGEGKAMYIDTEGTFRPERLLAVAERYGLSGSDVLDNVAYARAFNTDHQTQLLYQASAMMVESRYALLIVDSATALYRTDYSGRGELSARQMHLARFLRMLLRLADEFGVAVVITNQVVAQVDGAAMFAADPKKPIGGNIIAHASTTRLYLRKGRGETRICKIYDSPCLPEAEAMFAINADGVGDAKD
Description: DNA invasion by D-loop assay (strand exchange). Type of assay: biochemical. The conditions noted are these: 0.5 μM Rad51, 1 μM 100-ssDNA, 37° C.; read-out: IC50 (RAD51 protein inhibition, D-loop formation). The protocol:
Labeled 100-ssDNA** (1 μM) was incubated with 0.5 μM Rad51 in presence or absence of the indicated amounts of the corresponding molecule in 10 μL of standard reaction buffer containing 20 mM Tris-HCl (pH 8), 1 mM ATP, 1 mM DTT, 1 mM CaCl2) at 37° C. for 20 min. The reaction was initiated by adding supercoiled pPB4.3 DNA (200 μM in bp). After incubation of 30 min at 37° C., the reactions were stopped and deproteinized by a stop solution (10 mM Tris-HCl pH 8, 10 mM MgCl2, 1% SDS, and 1 mg/mL proteinase K. The reaction mixtures were further incubated for 15 min at 37° C. After adding 5-fold loading dye (0.05% bromophenol blue, 8% glycerol, 1 mM EDTA), the reaction products were separated by electrophoresis on 1% agarose gel. The electrophoresis was carried out in 0.5×TAE buffer (20 mM Tris, 10 mM acetic acid and 1 mM EDTA) at 100 V for 2 h. The labeled products (100-ssDNA** and D-loop) were visualized and quantified by the detection of the IRD-700 dye with the 700 nm infrared fluorescent detection channel of an Odyssey Infrared Imager (LI-COR) (Normand, A. et al., Biochemical Pharmacology, October 2014, Vol. 91, No. 3, pp. 293-300).
The “D-loop” in vitro test allows the quantification of the formation of the strand exchange structure (D-loop) and thus the determination of the inhibitory power of a molecule during the strand exchange step of the recombinase mechanism. IC50 measuring the RAD51 protein inhibition in presence of compounds A-1 to A-5, […] and DIDS are then calculated.

The test system of assay [2] is RAD51 foci in DU-145 cells. Description: Rad51 foci quantification by immunofluorescence. Format: cell-based. The note with it: DU-145, B-2 20 μM + cisplatin 30 μM; FIG. 8. The protocol: DU-145 cells were grown on coverslips (Life Technologies) at a density of 5×10^3 cells per well in medium (RPMI) supplemented with 10% fetal bovine serum (Gibco-Invitrogen). Cells were treated with Cisplatin at 30 μM for 1 hour in presence or in absence of RAD51 inhibitor B-2 at 20 μM, and then the medium was replaced with molecule-free medium. After 18 h, cells were washed once in PBS for 5 min and fixed with ethanol absolute for 25 min.
The fixed cells were incubated for 1 h in the PBS buffer containing 1:1000 diluted anti-RAD51 antibody at room temperature. After three 5-min washes in PBS, slides were incubated with PBS solution containing the secondary antibody conjugated with AlexaFluor 555 ([…]) for 45 min in dark room. […] The images were recorded with NIS Element software (Version 3.6, Nikon, Tokyo, Japan). The quantification of RAD51 foci was processed with a program derived from Fiji-ImageJ software (NIH, Bethesda, Maryland, USA). […]
The treatment with Cisplatin alone induces a high level of RAD51 foci, whereas this level is decreased when the treatment is associated with B-2 20 μM. After the quantification of the number of RAD51 foci per cell, the number of cells containing more than 20 RAD51 foci was determined.

Read-outs that look alike come from different tables or passages of the source.

By IC50 is commonly meant the concentration that gives 50% inhibition. As to `N#Cc1ccc(/C=C/c2ccc(C#N)cc2S(=O)(=O)[O-])c(S(=O)(=O)[O-])c1.[Na+].[Na+]` [B-2, Sodium (E)-6,6′-(ethene-1,2-diyl)bis(3-cyanobenzenesulfonate)], the percent decrease of IC50 at 20 µM is roughly 90% in the assay with DU-145 cell line (read-out: decrease of growth inhibition IC50 for camptothecin in presence of B-2) and roughly 40% in the assay on DU-145 cell line (read-out: decrease of growth inhibition IC50 for cisplatin in presence of B-2). The “intracellular HR inhibition” value in assay [1] is given as “significant inhibitory effect”. Also, the IC50 on Rad51 is 5 µM. Also, the “decrease of level of RAD51 foci mediated by cisplatin (cells containing more than 20 RAD51 foci)” value in assay [2] is reported as “about 20%”.
